Results reported in patent US20250368678A1, “19-NOR-C3,3-DISUBSTITUTED C21-AZACYCLO-S[…] AND METHOD FOR USING SAME” (SHANDONG LUYE PHARMACEUTICAL CO., LTD., priority 2022, published 2025).

Legend:
[1] = In vitro liver microsomal stability assay, rat; type: in vitro ADME
Outline: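 Test compound at […] was incubated at 37° C with 0.5 mg/mL rat or human liver microsomes, 1 mM NADPH and 3 mM MgCl2, in triplicate, sampled 0–60 min. Remaining parent was quantified by LC-MS/MS, giving half-life and microsomal and hepatic intrinsic clearance.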

[2] = target: T1, α4β3δ GABA receptors (α4β3δ-HEK-FlpIn-TRex stable cell strain) (Homo sapiens, UniProt P28472+P48169); assay: Whole-cell patch clamp, extrasynaptic functional activity (positive allosteric regulation of GABA-induced current); type: cell-based; details: patch clamp -60 mV, GABA at EC10-20, α4β3δ-HEK-FlpIn-TRex cells
T1 construct: expressed in transfected cells
Outline: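 Tetracycline-induced stable lines were used: α4β3δ in HEK-FlpIn-TRex and α1β2γ2 in CHO-TRex. Whole-cell patch clamp was run at −60 mV with GABA at EC10-20 ([…]) and compound perfused for 30 s before GABA, with extracellular pH 7.4. Fold increase in GABA current over ≥5 concentrations on ≥3 cells gave EC50 and Emax by Hill fit.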

T1 sequence (P48169 36-554): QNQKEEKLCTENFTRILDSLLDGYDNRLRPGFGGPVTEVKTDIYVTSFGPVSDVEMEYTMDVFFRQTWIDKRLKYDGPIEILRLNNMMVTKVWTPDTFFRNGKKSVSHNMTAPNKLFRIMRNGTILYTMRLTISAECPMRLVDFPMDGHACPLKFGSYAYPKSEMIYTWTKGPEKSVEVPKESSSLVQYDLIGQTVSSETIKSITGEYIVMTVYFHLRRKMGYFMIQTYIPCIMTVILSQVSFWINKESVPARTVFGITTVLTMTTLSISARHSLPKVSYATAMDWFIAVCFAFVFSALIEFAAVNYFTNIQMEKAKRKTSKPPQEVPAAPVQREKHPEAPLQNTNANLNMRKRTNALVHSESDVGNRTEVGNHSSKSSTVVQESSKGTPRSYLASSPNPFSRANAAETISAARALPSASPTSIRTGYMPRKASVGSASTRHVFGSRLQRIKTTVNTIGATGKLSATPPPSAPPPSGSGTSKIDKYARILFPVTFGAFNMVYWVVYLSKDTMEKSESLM
T1 sequence (P28472 26-473): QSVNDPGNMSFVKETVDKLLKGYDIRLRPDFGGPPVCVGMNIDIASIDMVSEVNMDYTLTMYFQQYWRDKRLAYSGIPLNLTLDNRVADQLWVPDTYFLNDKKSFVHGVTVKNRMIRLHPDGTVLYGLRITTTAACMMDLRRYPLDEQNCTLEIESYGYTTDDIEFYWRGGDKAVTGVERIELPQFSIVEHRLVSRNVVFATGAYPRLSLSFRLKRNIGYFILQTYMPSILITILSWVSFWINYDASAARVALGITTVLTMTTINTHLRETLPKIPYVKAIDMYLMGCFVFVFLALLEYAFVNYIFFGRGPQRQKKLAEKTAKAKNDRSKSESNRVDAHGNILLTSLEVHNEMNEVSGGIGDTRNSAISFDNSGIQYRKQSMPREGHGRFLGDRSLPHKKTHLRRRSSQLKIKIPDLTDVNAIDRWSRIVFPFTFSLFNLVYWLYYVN
T1 sequence (O14764 25-452 partner): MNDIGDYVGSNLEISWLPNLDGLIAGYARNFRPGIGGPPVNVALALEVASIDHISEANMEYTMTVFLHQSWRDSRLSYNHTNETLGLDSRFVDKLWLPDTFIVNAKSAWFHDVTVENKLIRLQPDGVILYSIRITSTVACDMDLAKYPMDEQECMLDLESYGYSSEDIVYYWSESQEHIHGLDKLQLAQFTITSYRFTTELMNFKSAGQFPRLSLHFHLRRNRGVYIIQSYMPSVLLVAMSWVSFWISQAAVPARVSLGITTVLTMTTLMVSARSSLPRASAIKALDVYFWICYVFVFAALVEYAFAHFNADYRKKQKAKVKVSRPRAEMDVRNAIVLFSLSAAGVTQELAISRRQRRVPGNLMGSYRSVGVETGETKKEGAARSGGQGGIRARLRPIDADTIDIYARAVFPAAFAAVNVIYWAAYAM

Which results are given for `C[C@@]1(O)CC[C@H]2[C@H](CC[C@@H]3[C@@H]2CC[C@]2(C)[C@@H](C(=O)Cn4cnn(-c5cc(F)nc(F)c5)c4=O)CC[C@@H]32)C1` [Compound 41]?
CLint scaled at 1 µM ([1]; Rat liver microsomes): 23 mL/min/kg; half-life at 1 µM ([1]; Rat liver microsomes): 1.8 h; Remaining amount % at 60 min ([1]; Rat liver microsomes 0.5 mg/mL, NADPH): 68.3%; microsomal CLint at 1 µM ([1]; Rat liver microsomes, read-out: CLint(mic)): 13 µL/min/mg; EC50 [2]: 67 nM; Emax [2]: 754%
